pIC50: −log10 of the molar value.
Legend:
[1] = system: Plasmodium falciparum strain D6 (chloroquine sensitive); assay: In vitro antimalarial activity, SYBR Green I fluorescence-based method (MSF assay), strain D6; assay type: cell-based; settings: P. falciparum D6, 72 hrs
Protocol: (§1) Plasmodium falciparum strains D6 and Dd2 were obtained from the MR4 (ATCC, Manassas, Va., USA). D6 is sensitive to chloroquine but mildly resistant to mefloquine while Dd2 is resistant to multiple quinoline and antifolate antimalarial agents. Tm90.C2B is resistant to atovaquone, chloroquine, mefloquine, and quinine.
(§2) Three different laboratory strains of P. falciparum were cultured in human erythrocytes by standard methods under a low oxygen atmosphere (5% O2, 5% CO2, 90% N2) in an environmental chamber as described in Trager, W., and J. B. Jensen. 1976. Human malaria parasites in continuous culture. Science 193:673-5. […]
(§3) In vitro antimalarial activity of the compounds was assessed by the SYBR Green I fluorescence-based method (the “MSF assay”) described previously by Smilkstein, M., N. Sriwilaijaroen, J. X. Kelly, P. Wilairat, and M. Riscoe. […] Simple and inexpensive fluorescence-based technique for high-throughput antimalarial drug screening. […] After this period the SYBR Green I dye-detergent mixture (100 μl) was added and the plates were incubated at room temperature for an hour in the dark and then placed in a 96-well fluorescence plate reader (Spectramax Gemini-EM, […]) for analysis with excitation and emission wavelength bands centered at 497 and 520 nm, respectively. […]

P. falciparum = assay: In vitro antiplasmodial activity, MSF assay, strain not specified or all 3 strains together; assay type: cell-based, Plasmodium falciparum; settings: for pIC50: strain not stated, read-out: IC50 (effect of 3-position side chain length); for reduction of potency relative to ELQ-121: relative to ELQ-121, in vitro testing; for in vitro antiplasmodial activity (SAR remark in words): compared within the endochin series
Protocol: as §1
Three different laboratory strains of P. falciparum were cultured in human erythrocytes by standard methods under a low oxygen atmosphere (5% O2, 5% CO2, 90% N2) in an environmental chamber as described in Trager, W., and J. B. Jensen. 1976. Human malaria parasites in continuous culture. Science 193:673-5. The culture medium was RPMI-1640, supplemented with 25 mM HEPES buffer, 25 mg/L gentamicin sulfate, 45 mg/L hypoxanthine, 10 mM glucose, 2 mM glutamine, and 0.5% Albumax II (complete medium). The parasites were maintained in fresh human erythrocytes suspended at a 2% hematocrit in complete medium at 37° C. Stock cultures were sub-passaged every 3 to 4 days by transfer of infected red cells to a flask containing complete medium and uninfected erythrocytes.
In vitro antimalarial activity of the compounds was assessed by the SYBR Green I fluorescence-based method (the “MSF assay”) described previously by Smilkstein, M., N. Sriwilaijaroen, J. X. Kelly, P. Wilairat, and M. Riscoe. 2004. Simple and inexpensive fluorescence-based technique for high-throughput antimalarial drug screening. Antimicrob Agents Chemother 48:1803-6 with minor modifications (Winter, R. W., J. X. Kelly, M. J. Smilkstein, R. Dodean, G. C. Bagby, R. K. Rathbun, J. I. Levin, D. Hinrichs, and M. K. Riscoe. 2006. Evaluation and lead optimization of anti-malarial acridones. Exp Parasitol 114:47-56). Experiments were set up in triplicate in 96 well plates (Costar, Corning) with two-fold dilutions of each drug across the plate in a total volume of 100 microliters and at a final red blood cell concentration of 2% (v/v). Stock solutions of each drug were prepared by dissolving in ethanol or dimethylsulfoxide (as appropriate) at 10 mM. […] Automated pipeting and dilution was carried out with the aid of a programmable Precision 2000 robotic station (BioTek, Winooski, Vt.). An initial parasitemia of 0.2% was attained by addition of normal uninfected red cells to a stock culture of asynchronous parasite infected red cells (PRBC). The plates were incubated for 72 hrs at 37° C. in an atmosphere of 5% CO2, 5% O2, and 90% N2. After this period the SYBR Green I dye-detergent mixture (100 μl) was added and the plates were incubated at room temperature for an hour in the dark and then placed in a 96-well fluorescence plate reader (Spectramax Gemini-EM, […]) for analysis with excitation and emission wavelength bands centered at 497 and 520 nm, respectively. The fluorescence readings were plotted against the logarithm of the drug concentration and curve fitting by nonlinear regression analysis (GraphPad Prism software) yielded the drug concentration that produced 50% of the observed decline relative to the maximum readings in drug-free control wells (IC50).
The compounds were screened for antiplasmodial activity in vitro against chloroquine (CQ) sensitive (D6), multidrug resistant (Dd2), and chloroquine/quinine/atovaquone (ATV)-resistant (Tm90.C2B) strains of P. falciparum. […] The following observations on the structure-activity relationships (SAR) can be made: • 1. It may be observed that the length of the 3-position side chain influences the antiplasmodial effect.

[2] = system: Plasmodium falciparum strain Tm90.C2B (chloroquine/quinine/atovaquone-resistant); assay: In vitro antimalarial activity, MSF assay, strain Tm90.C2B; assay type: cell-based; settings: Tm90.C2B compared with the other strains
Protocol: as §1, §2, §3

P. yoelii = assay: In vivo efficacy in a murine malaria model of patent infection with P. yoelii (modified Thompson procedure)
Protocol: The activity of the ester, ELQ-125, against the blood stages was assessed using a modified Thompson procedure (Arba Ager, 1984). Rodent malaria models, vol. 68/1. Springer-Verlag, Berlin. Mice (female, CF1) were infected intravenously with 1-5 million P. yoelii parasitized erythrocytes from a donor animal. […] The drug was administered by gavage once daily for 3 days. On the 4th day blood films were prepared and the extent of parasitemia was determined microscopically. ED50 and ED90 values (mg/kg/day) were derived from the dose required to reduce the parasite burden by 50% and 90%, respectively, relative to drug-free controls. The procedures involved, together with all matters relating to the care and housing of the animals used in this study, were approved by the Portland VA Medical Center Institutional Animal Care and Use Committee (approval #0807).
Prodrugs containing a water-soluble pro-moiety that could be metabolically released after drug administration were designed and synthesized.

[3] = Water solubility and vehicle miscibility of the prodrug; assay type: physicochemical; settings: prodrug compared with ELQ-121
[4] = system: Toxoplasma gondii strain 2F; assay: Anti-T. gondii activity, 2F strain beta-galactosidase assay in HFF cells; assay type: cell-based; settings: compared with the correlation seen for P. falciparum
Protocol: Determination of anti-T. gondii IC50 and TD50 values—use of the 2F strain. This method, which employs tachyzoites of Toxoplasma gondii strain 2F that constitutively expresses cytoplasmic Beta-galactosidase, has been described recently by Jones-Brando et al. (Jones-Brando, L., D'angelo, J., Posner, G H, and Yolken, R., 2006, In vitro inhibition of Toxoplasma gondii by four new derivatives of artemisinin, Antimicrobial Agents and Chemotherapy 50: 4206-8). […] Briefly, each drug was dissolved in ethanol or DMSO, as appropriate, at a concentration of 10 mM and diluted with complete Dulbecco's modified Eagle's medium (DMEM) to 1,000 μM. […] After this period, Triton X-100 is added to inactivate the parasite and the color reactions in the wells were read in a microplate reader. For anti-T. gondii IC50 determinations, the plates are read at 570-650 nm. The amount of absorbance (570-650 nm) in wells containing drug, parasites, and CPRG reagent is compared to that in control wells containing T. gondii, HFF cells and CPRG. The amount of absorbance in these wells is directly proportional to the amount of beta-galactosidase activity and thus correlative to the number of viable tachyzoites in each well. Thus, a decrease in the amount of absorbance indicates an inhibition of parasite growth. […]

[5] = mice, gavage once daily for 3 days in 100 μl NeoBee M5

Structure (SMILES): CCCCCCCc1c(O)[nH]c2cc(OC)ccc2c1=O [ELQ-106]
- pIC50 [1]: < 5.60

Structure (SMILES): CCCCc1c(C)[nH]c2cc(OC)ccc2c1=O [ELQ-115]
- pIC50 (P. falciparum): ~7.52

Structure (SMILES): CCCCCCCc1c(C)[nH]c2c(F)cc(F)cc2c1=O [6,8-difluoro positional isomer]
- reduction of potency relative to ELQ-121 (P. falciparum): ≈ 2,000 fold

Structure (SMILES): CCCCCCCc1c(C)[nH]c2ccccc2c1=O [ELQ-127]
- in vitro antiplasmodial activity (SAR remark in words) (P. falciparum): equally active against all three parasite strains
- weakening of in vitro activity relative to endochin (P. falciparum; relative to endochin): roughly 5 fold

Structure (SMILES): CCCCCCCc1c(C)[nH]c2cc(Cl)cc(Cl)c2c1=O [ELQ-124]
- in vitro antiplasmodial activity (SAR remark in words) (P. falciparum): weak in vitro activity

Structure (SMILES): CCCCCCCc1c(C)[nH]c2ccc(Cl)cc2c1=O [ELQ-130]
- cross-resistance / sensitivity of atovaquone-resistant Tm90.C2B (in words) [2]: equal sensitivity
- in vitro antiplasmodial activity (SAR remark in words) (P. falciparum): modest reduction in antimalarial response

Structure (SMILES): CCCCCCCc1c(C)nc2cc(F)cc(F)c2c1OC(=O)OCCOCCOCCOCCOC [ELQ-125]
- parasite status on follow-up (P. yoelii; 25 mg/kg/day oral, 3 days, followed until euthanized 10 days later): remained parasite-free
- ED50 (P. yoelii; [5]): 11 mg/kg/day
- ED90 (P. yoelii; [5]): 22 mg/kg/day
- in vivo efficacy (in words) (P. yoelii; prodrug compared with ELQ-121): greatly enhanced in vivo efficacy
- water solubility [3]: improved water solubility

Structure (SMILES): CCCCCCCc1c(C)[nH]c2cc(F)ccc2c1=O [ELQ-120]
- in vitro antiplasmodial activity (SAR remark in words) (P. falciparum): only a modest reduction in in vitro potency

Structure (SMILES): CCCCCCCc1c(C)[nH]c2cc(F)cc(F)c2c1=O [ELQ-121, 2-Methyl-3-(n-heptyl)-5.7-difluorquinolone]
- in vitro antiplasmodial activity (SAR remark in words) (P. falciparum): one of the most potent compounds in the tested series

Structure (SMILES): COc1ccc2c(=O)c(CCCCCCCCCCC(F)(F)F)c(C)[nH]c2c1 [ELQ-103]
- IC50 values for all 3 tested strains (in words) (P. falciparum; D6, Dd2 and Tm90.C2B): low nanomolar range

Structure (SMILES): CCCCCCCc1c(C)[nH]c2cc(O)ccc2c1=O [ELQ-117]
- in vitro antiplasmodial activity (SAR remark in words) (P. falciparum): greatly diminishes antiplasmodial activity

Structure (SMILES): CCCCCCCc1c(C)nc2cc(F)cc(F)c2c1Cl [ELQ-119]
- reduction of potency relative to ELQ-121 (P. falciparum): > 1,000 fold

Structure (SMILES): CCCCCCCc1c(C)n(C)c2cc(F)cc(F)c2c1=O [ELQ-134]
- growth inhibitory activity against Toxoplasma gondii (in words) [4]: enhanced growth inhibitory activity
- reduction of potency relative to ELQ-121 (P. falciparum): about 300 fold

Structure (SMILES): CCCCCCCc1c(C)[nH]c2cc(OC)ccc2c1=O [ELQ-100, endochin, reference compound]
- cross-resistance / sensitivity of atovaquone-resistant Tm90.C2B (in words) [2]: modest level of ATV cross-resistance
- pIC50 (P. falciparum): ~8.52

Structure (SMILES): CCCCCCCc1c(C)[nH]c2cc(Cl)ccc2c1=O [ELQ-109]
- in vitro antiplasmodial activity (SAR remark in words) (P. falciparum): only a modest reduction in in vitro potency

Reference: US8598354B2, “Compounds having antiparasitic or anti-infectious activity” (University of South Florida, priority 2008, dated 2013)
